Data from US20250000864A1, “GONADOTROPIN-RELEASING HORMONE ANTAGONIST, AND PREPARATION METHOD THEREFOR AND USE THEREOF” (SHANDONG LUYE PHARMACEUTICAL CO., LTD., priority 2021, published 2025).
Like-named read-outs stand apart in the source and are kept apart here.

Legend:
[1] = Metabolic stability in rat liver microsomes; format: in vitro ADME, SD rat; conditions: for CLint(liver) / Residual content at 60 min / half-life / microsomal CLint / CLint scaled: Rat liver microsomes; for Residual content at 60 min: NADPH, 37° C.; for half-life / microsomal CLint / CLint scaled: Sprague-Dawley (SD); for microsomal CLint: read-out: CLint(mic)
Method: (§1) Liver Microsome: Rat Liver Microsome and Human Liver Microsome Reagent: NADPH, Roche Diagnostics Gmbh; ACN, Merck Chemical; Tolbutamide, Sigma. Instrument: water purification equipment, Millipore; electronic balance, METTLER TOLEDO; high-speed benchtop centrifuge, Thermo; water bath thermostatic oscillator, Shanghai Yiheng Technical Co., Ltd.; vortex oscillator, Thermo; LC-MS/MS, AB SCIEX. Method: the metabolic stability of test substances was evaluated by using SD rat and human liver microsomes. The test substances were incubated with liver microsomes from different species by using NADPH under a water bath at 37° C. A cold acetonitrile solution containing a Tolbutamide internal standard substance was added at a specified time point to terminate the reaction. The samples were pre-treated and then subjected to semi-quantitative analysis by LC-MS/MS. The retention times of the analytes and Tolbutamide internal standard, the acquisition of chromatograms, and the integration of chromatograms were processed using software Analyst (A Sciex, Framingham, Massachusetts, USA). The in vitro elimination rate constant Ke of the samples was obtained by converting the ratio of the peak area of the samples to the peak area of the internal standard into the residual percentage, and the in vitro clearance rate and the half-life of the test samples were calculated.

[2] = Metabolic stability in human liver microsomes; format: in vitro ADME; conditions: for Residual content at 60 min: NADPH, 37° C.; for microsomal CLint: read-out: CLint(mic)
Method: as §1

[3] = Caco-2 two-way permeability and efflux; format: in vitro ADME; conditions: human; for Papp A→B at 120 min / Papp B→A at 120 min: Caco-2, 120 min incubation
Method: Instrument: water purification equipment, ELGA LabWate; biosafety cabinet, NUAIRE; thermostatic CO2 incubator, Thermo; microplate reader, PerkinElmer; LC-MS/MS, AB SCIEX.
Method: A Caco-2 monolayer cell model was used to determine the two-way permeability of the test substances and evaluate whether the test substances were transported by the efflux of a transporter. In the experiment, Caco-2 cells were seeded into a 96-well cell culture plate and cultured for 28 consecutive days for transport assay. The test substances were each administered on two sides. After being incubated for 120 min, the samples at the apical end A, at the basal end B, and with cell lysis were collected and quantitatively determined for the content of the test substances by using a liquid chromatography-tandem mass spectrometry (LC/MS/MS) method. The apparent permeability coefficient (Papp) in the direction from the apical end to the basal end (A-B) and in the direction from the basal end to the apical end (B-A) and the efflux ratio were calculated from the concentrations of the test substances.

[4] = Pharmacokinetics in SD rats (i.v. and i.g.); format: in vivo; conditions: for bioavailability: read-out: F (absolute bioavailability)
Method: Instrument: water purification equipment, Millipore; electronic balance, METTLER TOLEDO; high-speed benchtop centrifuge, Thermo; water bath thermostatic oscillator, Shanghai Yiheng Technical Co., Ltd.; vortex oscillator, Thermo; LC-MS/MS, AB SCIEX.
Method: all compounds were formulated in DMSO and 20% solutol. In the pharmacokinetic experiment, the administration dose for the intravenous group (i.v) was 1 mg/kg, and the administration dose for the intragastric group (i.g) was 12 mg/kg, each group containing 3 rats. Blood was collected from the orbit of the rats before (0 h) the administration and at set time points after administration. In the tissue distribution experiment, the rats were subjected to intragastric administration at a dose of 12 mg/kg. […] The […] in a heparinized EP tube and centrifuged at 13,500 rpm for 10 min to isolate the plasma. The pituitary was homogenized with water in a certain proportion. The plasma and pituitary homogenates were pre-treated and then analyzed by LC-MS/MS to determine the concentration of the test substances in the plasma and the pituitary. The plasma drug concentration data were processed in a non-compartmental model using WinNonlin™ Version 6.3 (Pharsight, Mountain View, CA) pharmacokinetic software.

human GnRHR = human GnRHR (Homo sapiens (Human), UniProt P30968); experiment: In vitro antagonistic activity screening (FLIPR calcium fluorescence, Leuprolide acetate stimulation); format: cell-based; conditions: HEK293 cells stably expressing human GnRHR
human GnRHR, sequence (P30968 whole entry): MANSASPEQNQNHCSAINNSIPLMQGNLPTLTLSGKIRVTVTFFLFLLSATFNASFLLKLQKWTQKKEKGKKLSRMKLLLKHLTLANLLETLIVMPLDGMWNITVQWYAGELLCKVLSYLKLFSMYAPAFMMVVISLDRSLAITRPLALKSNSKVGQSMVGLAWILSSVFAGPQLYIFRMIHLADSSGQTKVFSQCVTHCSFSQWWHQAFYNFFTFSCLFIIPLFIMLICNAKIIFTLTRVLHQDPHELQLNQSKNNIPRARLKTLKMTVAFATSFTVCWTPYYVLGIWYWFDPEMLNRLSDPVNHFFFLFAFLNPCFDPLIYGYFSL
Method: Cell: HEK293 cells stably expressing human GnRHR (WuXi AppTec (Shanghai) Co., Ltd.) Equipment: 384-well plate, Greiner; Vi-cell XR Cell Viability Analyzer, Beckman Coulter; incubator, Thermo.
Method: HEK293 cells stably expressing human GnRHR were seeded into a 384-well plate at a density of 20,000/well. Fluo-4 Direct™ No-wash Loading Buffer (Invitrogen) was added to each well the next day, and then the plate was put back into an incubator, incubated at 37° C. for 50 min, and then incubated at room temperature for 10 min. Test compounds were formulated in DMSO. […] Fluorescence values were determined using a FLIPR Tetra high throughput real-time fluorescence detection and assay system. Then 10 μL of Leuprolide acetate was added, and fluorescence values were determined. IC50 and IC90 of the compounds were calculated using Prism.

[5] = biological target: human hERG potassium channel (Homo sapiens (Human), UniProt Q12809); experiment: hERG test (QPatch automated patch clamp, CHO cells); format: cell-based
human hERG potassium channel, sequence (Q12809 whole entry): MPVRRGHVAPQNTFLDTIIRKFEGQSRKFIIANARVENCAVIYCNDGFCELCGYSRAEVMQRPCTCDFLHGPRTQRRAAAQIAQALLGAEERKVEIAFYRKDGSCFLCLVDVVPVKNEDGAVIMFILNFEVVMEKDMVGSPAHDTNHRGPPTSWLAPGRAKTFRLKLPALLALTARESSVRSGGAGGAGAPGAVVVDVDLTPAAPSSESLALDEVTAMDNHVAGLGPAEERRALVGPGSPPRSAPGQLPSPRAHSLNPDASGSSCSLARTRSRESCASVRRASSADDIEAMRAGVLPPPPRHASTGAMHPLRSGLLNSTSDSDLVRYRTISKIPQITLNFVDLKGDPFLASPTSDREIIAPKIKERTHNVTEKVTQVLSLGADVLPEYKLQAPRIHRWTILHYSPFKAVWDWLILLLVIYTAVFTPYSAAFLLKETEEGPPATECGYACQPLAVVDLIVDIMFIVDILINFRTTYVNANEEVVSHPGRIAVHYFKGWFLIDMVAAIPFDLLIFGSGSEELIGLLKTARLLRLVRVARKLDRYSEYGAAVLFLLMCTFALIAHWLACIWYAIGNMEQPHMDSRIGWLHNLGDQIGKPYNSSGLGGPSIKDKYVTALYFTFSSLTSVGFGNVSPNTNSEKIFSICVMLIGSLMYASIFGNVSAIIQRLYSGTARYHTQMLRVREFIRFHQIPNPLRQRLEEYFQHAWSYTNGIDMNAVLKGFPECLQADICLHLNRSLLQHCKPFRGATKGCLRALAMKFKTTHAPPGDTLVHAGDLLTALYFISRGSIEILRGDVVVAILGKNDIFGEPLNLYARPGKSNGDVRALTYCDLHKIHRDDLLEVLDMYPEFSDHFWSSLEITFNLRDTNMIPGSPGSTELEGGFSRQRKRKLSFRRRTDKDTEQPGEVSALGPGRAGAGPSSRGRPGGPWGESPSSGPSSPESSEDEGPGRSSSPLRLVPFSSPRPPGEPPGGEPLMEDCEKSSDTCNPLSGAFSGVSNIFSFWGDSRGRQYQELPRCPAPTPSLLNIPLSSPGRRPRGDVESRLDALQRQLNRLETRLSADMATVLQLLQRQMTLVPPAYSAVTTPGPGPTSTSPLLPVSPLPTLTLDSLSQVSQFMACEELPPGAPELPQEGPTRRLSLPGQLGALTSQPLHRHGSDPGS
Method: Cell: CHO cells stably expressing a human hERG potassium channel (WuXi AppTec (Shanghai) Co., Ltd.) Reagent: physiological solution (pH=7.4): 140 mM NaCl, 4 mM KCl, 2 mM CaCl2), 1 mM MgCl2, 5 mM Glucose, 10 mM HEPES, Osmolarity: about 298 mOsm; external solution (pH=7.4): 80 mM NaCl, 4 mM KCl, 2 mM CaCl2), 1 mM MgCl2, 5 mM Glucose, 60 mM NMDG, 10 mM HEPES, Osmolarity: about 289 mOsm; internal solution (pH=7.4): 10 mM NaCl, 10 mM KCl, 110 mM KF, 10 mM HEPES, EGTA: […], Osmolarity: about 280 mOsm.
Equipment: QPatch high-throughput automated patch clamp system, Sophion.
Method: CHO cells stably expressing a human hERG potassium channel were digested with TrypLE and resuspended in a physiological solution for later use. The single-cell high-impedance sealing and whole-cell mode formation processes were automatically completed by Qpatch. The clamping voltage for the cells was −80 mV. Then a voltage of −50 mV was applied for 80 ms to subtract (current) leakage, and a voltage of +20 mV was applied for 4800 ms to open the hERG channel. The voltage was then reduced to −50 mV and maintained for 5000 ms. This process was used for data collection and analysis. Finally, the voltage was returned to the clamping voltage (−80 mV, 1000 ms). This process was repeated every 20,000 ms. 40 μL of solvent control (external solution+DMSO) was added first, and the test was performed for […] to collect baseline data. Then, 40 μL of each of the test compounds was added at various concentrations, and the test was performed for no less than […]. The compounds were each dissolved in DMSO, with test concentrations being 0.30 μM, 1.00 μM, 3.00 μM, 10.00 μM, and 30.00 μM. The IC50 data for the hERG test were obtained by analyzing using DataControl, Excel2013, and Prism.

[6] = male, Sprague-Dawley (SD), rat, plasma, po, i.g 12 mg/kg vs i.v 1 mg/kg
[7] = male, Sprague-Dawley (SD), rat, plasma, iv, i.v 1 mg/kg
[8] = male, Sprague-Dawley (SD), rat, plasma, po, i.g 12 mg/kg
[9] = male, rat, plasma, intravenous, i.v 1 mg/kg
[10] = male, rat, plasma, oral, i.g 12 mg/kg

## COc1ccc(-n2c(=O)c3c(CN(C)C)c(-c4ccc(NC(=O)NOCC(F)F)cc4)sc3n(Cc3c(F)cccc3F)c2=O)nn1 [Compound 7]
[1]
  CLint(liver): 45.4 mL/min/kg
  Residual content at 60 min: 47.0%
  half-life: 0.917 h
  microsomal CLint: 25.2 µL/min/mg
[2]
  CLint(liver): 7.38 mL/min/kg
  half-life: 2.82 h
  Residual content at 60 min: 75.5%
  microsomal CLint: 8.2 µL/min/mg
[3]
  Papp A→B at 120 min: 0.0101 ×10⁻⁶ cm/s
  Papp B→A at 120 min: 15.6 ×10⁻⁶ cm/s

## CONC(=O)Nc1ccc(-c2sc3c(c2CN(C)C)c(=O)n(-c2ccc(OC)nn2)c(=O)n3Cc2c(F)cccc2F)cc1 [Relugolix, reference compound]
[1]
  CLint(liver): 29.5 mL/min/kg
  Residual content at 60 min: 58.0%
  half-life: 1.41 h
  microsomal CLint: 16.4 µL/min/mg
[2]
  CLint(liver): 5.22 mL/min/kg
  half-life: 3.98 h
  Residual content at 60 min: 86.4%
  microsomal CLint: 5.8 µL/min/mg
[3]
  Papp A→B at 120 min: 0.00716 ×10⁻⁶ cm/s
  Papp B→A at 120 min: 13.8 ×10⁻⁶ cm/s
[4]; i.g 12 mg/kg
  T1/2: 3.88 ± 0.57 h
[4]; [6]
  bioavailability: 5.74%

## CONC(=O)Nc1ccc(-c2oc3c(c2CN(C)C)c(=O)n(-c2ccc(OC)nn2)c(=O)n3Cc2c(F)cccc2F)cc1 [Compound 4]
Human GnRHR; read-out: Functional IC50
  IC50: 12 nM
Human GnRHR; read-out: Functional IC90
  IC90: 92.3 nM
[5]; CHO cells stably expressing human hERG potassium channel
  IC50: 4440 nM
[5]; in words, vs Relugolix
  Inhibitory activity on the human hERG potassium channel compared with Relugolix: equal to or less than that of Relugolix
[1]
  Residual content at 60 min: 89.9%
  CLint scaled: < 13.5 mL/min/kg
  half-life: > 3.1 h
  microsomal CLint: < 7.5 µL/min/mg
[1]; SD rat liver microsome
  Clearance in the SD rat liver microsome (in words): low clearance
[2]
  CLint scaled: < 6.75 mL/min/kg
  half-life: > 3.1 h
  Residual content at 60 min: 104%
  microsomal CLint: < 7.5 µL/min/mg
[3]; Caco-2, read-out: Efflux ratio
  efflux ratio at 120 min: 316
[3]
  Papp A→B at 120 min: 0.0933 ×10⁻⁶ cm/s
  Papp B→A at 120 min: 29.4 ×10⁻⁶ cm/s

## CONC(=O)Nc1ccc(-c2sc3c(c2CN(C)C)c(=O)n(-c2ccc(OC)nn2)c(=O)n3Cc2c(F)cccc2C(F)(F)F)cc1 [Compound 5]
[1]
  Residual content at 60 min: 98.7%
  CLint scaled: < 13.5 mL/min/kg
  half-life: > 3.1 h
  microsomal CLint: < 7.5 µL/min/mg
[2]
  CLint scaled: < 6.75 mL/min/kg
  half-life: > 3.1 h
  Residual content at 60 min: 89.0%
  microsomal CLint: < 7.5 µL/min/mg
[3]
  Papp A→B at 120 min: 0.011 ×10⁻⁶ cm/s
  Papp B→A at 120 min: 4.58 ×10⁻⁶ cm/s

## CONC(=O)Nc1ccc(-c2sc3c(c2CN(C)C)c(=O)n(-c2cccc(OC(F)F)c2F)c(=O)n3Cc2c(F)cccc2F)cc1 [Compound 3]
[1]
  Residual content at 60 min: 34.5%
  CLint scaled: 62.6 mL/min/kg
  half-life: 0.663 h
  microsomal CLint: 34.8 µL/min/mg
[2]
  CLint scaled: 17.5 mL/min/kg
  half-life: 1.19 h
  Residual content at 60 min: 55.5%
  microsomal CLint: 19.4 µL/min/mg
[3]
  Papp A→B at 120 min: 0.126 ×10⁻⁶ cm/s
  Papp B→A at 120 min: 18 ×10⁻⁶ cm/s
[4]; [7]
  AUC(0-t): 271 ± 49 ng·h/mL
  C0: 198 ± 4 ng/mL
  MRT last: 3.83 ± 0.63 h
  half-life: 4.34 ± 1 h
[4]; [8]
  AUC(0-t): 596 ± 231 ng·h/mL
  Cmax: 82.7 ± 10.1 ng/mL
  MRT last: 7.3 ± 1.13 h
  half-life: 4.11 h
[4]; [6]
  bioavailability: 18.3%
[4]; male, Sprague-Dawley (SD), rat, plasma, po, i.g 12 mg/kg, read-out: Tmax
  Tmax: 6 ± 2.83 h

## CNc1ccc(-n2c(=O)c3c(CN(C)C)c(-c4ccc(NC(=O)NOC)cc4)sc3n(Cc3c(F)cccc3F)c2=O)nn1 [Compound 6]
[1]
  Residual content at 60 min: 57.1%
  CLint scaled: 34.9 mL/min/kg
  half-life: 1.19 h
  microsomal CLint: 19.4 µL/min/mg
[2]
  CLint scaled: < 6.75 mL/min/kg
  half-life: > 3.1 h
  Residual content at 60 min: 95.9%
  microsomal CLint: < 7.5 µL/min/mg
[3]
  Papp A→B at 120 min: 0.0504 ×10⁻⁶ cm/s
  Papp B→A at 120 min: 0.504 ×10⁻⁶ cm/s

## CONC(=O)Nc1ccc(-c2sc3c(c2CN(C)CCOC(F)(F)F)c(=O)n(-c2ccc(OC)nn2)c(=O)n3Cc2c(F)cccc2F)cc1 [Compound 1]
[4]; i.g 12 mg/kg
  T1/2: 4.86 ± 3.05 h
  Tmax: 1.13 ± 0.63 h
[4]; i.g 12 mg/kg vs i.v 1 mg/kg
  F (absolute bioavailability): 44.7%
[4]; i.v 1 mg/kg
  T1/2: 2.79 ± 0.87 h
[4]; [9]
  AUC(0-t): 992 ± 226 ng·h/mL
  C0: 2830 ± 454 ng/mL
  MRT last: 0.539 ± 0.041 h
[4]; [10]
  AUC(0-t): 5320 ± 1210 ng·h/mL
  Cmax: 664 ± 123 ng/mL
  MRT last: 6.02 ± 0.93 h
